Laboratory results: patent US20220306695A1, “COMPSTATIN ANALOGUES AND THEIR MEDICAL USES” (priority 2019, published 2022)
Starred links: 1 amine or outer side, 2 acyl side, 3 side chain; linkers in the order of their positions; H or OH if unused. Positions of bridges follow the written chain, without caps; N, C: chain ends. Non-standard residues stand in square brackets, D forms with d. Residues, ends and D or L forms follow the SMILES beside them. Groups on a side chain read outwards from the residue. *: point of attachment. Trp(1-Me) = Cn1cc(C[C@H](N)C(=O)O)c2ccccc21; C18 diacid = O=C(O)CCCCCCCCCCCCCCCCC(=O)*; C16 diacid = O=C(O)CCCCCCCCCCCCCCC(=O)*; γGlu = O=C(O)[C@H](CCC(=O)[*:2])N[*:1]; AEEA = NCCOCCOCC(=O)O; Sar = CNCC(=O)O

What was measured:
[1] = tested on: classical complement pathway; test: In vitro haemolysis assay (inhibition of classical complement pathway); type: cell-based, human; settings: Table 3; human serum, sensitized sheep red blood cells; read-out: IC50[nM], in vitro analysis of inhibition of hemolysis
Outline: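 Serially diluted compound (9 points) was preincubated 15 min at room temperature with diluted human serum, titrated per batch to give 70-90% maximal haemolysis, in Tris/casein buffer pH 7.4 with Mg2+/Ca2+. Antibody-sensitized sheep erythrocytes were then added for 30 min at 37° C, and the reaction was stopped with EDTA. Haemolysis was read at A405, with IC50 from 4PL fit.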

in vivo = test: in vivo; parameters: species or system Cynomolgus monkeys (Macaca fascicularis); settings: male, cynomolgus monkey, sc, 1840 nmol/kg, t½
Method: Healthy male Cynomolgus monkeys (Macaca fascicularis) received single subcutaneous administrations of each test substance. Compounds were formulated in 20 mM phosphate adjusted with NaOH to pH 7.5 and mannitol for isotonicity and dosed at 1840 nmol/kg. Blood was collected from a femoral vein from each animal at the following times: Pre-dose, 1, 2, 4, 8, 24, 48, 72, 96 and 120 h (10 sampling times). Blood was collected into serum separation tubes and allowed to clot at room temperature. The tubes were centrifuged and resulting serum was aliquoted and snap-frozen over dry-ice and stored at nominally −80° C. until analysis. All NHP studies were performed in accordance with animal welfare laws and regulations, including approval of the study by a local ethical review process.
In order to assess pharmacokinetic half-life (t %/), serum samples isolated from non-human primates at specific time points after dosing were analysed for total drug compound after sample preparation by solid phase extraction (SPE) and liquid chromatography mass spectrometry (LC-MS/MS) using analogue internal standard. Single measurement of serum concentrations were used for calculation of the pharmacokinetic parameters using the non-compartmental approach in Phoenix WinNonlin 6.3. Plasma terminal elimination half-life (ty) was determined as In(2)/λz where λz is the magnitude of the slope of the log linear regression of the log concentration versus time profile during the terminal phase.

[2] = Solubility test at 10 mg/mL (visual inspection and light scattering); type: physicochemical; settings: for Solubility, Condition 1 Acetate pH 4: 10 mg/mL compound in 100 mM acetate pH 4; for Solubility, Condition 2 Acetate pH 5: 10 mg/mL compound in 100 mM acetate pH 5; for Solubility, Condition 3 Phosphate pH 6: 10 mg/mL compound in 100 mM phosphate pH 6; for Solubility, Condition 4 Phosphate pH 7: 10 mg/mL compound in 100 mM phosphate pH 7; for Solubility, Condition 5 Phosphate pH 7.5: 10 mg/mL compound in 100 mM phosphate pH 7.5

SMILES	IC50 [1] [nM]	half-life (in vivo) [h]	Solubility, Condition 1 Acetate pH 4 [2]	Solubility, Condition 2 Acetate pH 5 [2]	Solubility, Condition 3 Phosphate pH 6 [2]	Solubility, Condition 4 Phosphate pH 7 [2]	Solubility, Condition 5 Phosphate pH 7.5 [2]
CC[C@H](C)[C@@H]1NC(=O)[C@@H](NC(=O)[C@H](Cc2ccccc2)NC(=O)[C@H](CCC(=O)O)NC(=O)[C@H](CO)NC(C)=O)CSSC[C@@H](C(=O)N(C)CC(=O)N[C@@H](CCC(=O)O)C(=O)NCC(=O)N[C@@H](CCC(=O)O)C(=O)N[C@@H](CO)C(=O)N[C@@H](CCC(=O)O)C(=O)N[C@@H](CO)C(=O)N[C@@H](CCCCNC(=O)CC[C@H](NC(=O)CNC(=O)CC[C@H](NC(=O)CCCCCCCCCCCCCCCCC(=O)O)C(=O)O)C(=O)O)C(N)=O)NC(=O)[C@H](CCCNC(=N)N)NC(=O)[C@H](Cc2c[nH]cn2)NC(=O)[C@H](CCC(=O)O)NC(=O)CNC(=O)[C@H](Cc2c[nH]c3ccccc23)NC(=O)[C@H](CC(=O)O)NC(=O)[C@H](CCC(N)=O)NC(=O)[C@H](Cc2cn(C)c3ccccc23)NC1=O [Compound 139] (Ac-SEFCI[Trp(1-Me)]QDWGEHRC[Sar]EGESESK([γGlu-Gly-γGlu-C18 diacid])-NH2; disulfide 4-14)	< 100	82	–	–	–	–	–
CC[C@H](C)[C@@H]1NC(=O)[C@@H](NC(=O)[C@H](Cc2ccc(O)cc2)NC(=O)[C@H](C)NC(=O)[C@H](CO)NC(=O)CNC(=O)[C@H](CCC(=O)O)NC(C)=O)CSSC[C@@H](C(=O)N(C)CC(=O)N[C@@H](CCC(=O)O)C(=O)NCC(=O)N[C@@H](CCCCNC(=O)COCCOCCNC(=O)COCCOCCNC(=O)CC[C@H](NC(=O)CCCCCCCCCCCCCCC(=O)O)C(=O)O)C(N)=O)NC(=O)[C@H](CCCNC(=N)N)NC(=O)[C@H](Cc2c[nH]cn2)NC(=O)[C@H](CCC(=O)O)NC(=O)CNC(=O)[C@H](Cc2c[nH]c3ccccc23)NC(=O)[C@H](CC(=O)O)NC(=O)[C@H](CCC(N)=O)NC(=O)[C@H](Cc2cn(C)c3ccccc23)NC1=O [Compound 104] (Ac-EGSAYCI[Trp(1-Me)]QDWGEHRC[Sar]EGK([AEEA-AEEA-γGlu-C16 diacid])-NH2; disulfide 6-16)	< 100	96.3	− (denotes lack of solubility at the given condition, as UV absorbance at 340 nm exceeds 0.1 AU and/or it is visibly turbid or contains particles.)	+ (denotes solubility at the given condition, as determined by UV absorbance being less than 0.1 AU at 340 nm and the sample being clear when manually inspected.)	+ (denotes solubility at the given condition, as determined by UV absorbance being less than 0.1 AU at 340 nm and the sample being clear when manually inspected.)	+ (denotes solubility at the given condition, as determined by UV absorbance being less than 0.1 AU at 340 nm and the sample being clear when manually inspected.)	+ (denotes solubility at the given condition, as determined by UV absorbance being less than 0.1 AU at 340 nm and the sample being clear when manually inspected.)
CC[C@H](C)[C@@H]1NC(=O)[C@@H](NC(=O)[C@H](Cc2ccc(O)cc2)NC(=O)[C@H](CCC(=O)O)NC(=O)[C@H](CO)NC(=O)CNC(=O)[C@H](CCC(=O)O)NC(=O)CCCCCCCCCCCCCCC(=O)O)CSSC[C@@H](C(=O)N(C)CC(=O)N[C@@H](CCC(=O)O)C(N)=O)NC(=O)[C@H](CCCNC(=N)N)NC(=O)[C@H](Cc2c[nH]cn2)NC(=O)[C@H](CCC(=O)O)NC(=O)CNC(=O)[C@H](Cc2c[nH]c3ccccc23)NC(=O)[C@H](CC(=O)O)NC(=O)[C@H](CCC(N)=O)NC(=O)[C@H](Cc2cn(C)c3ccccc23)NC1=O [Compound 107] ({C16 diacid}-EGSEYCI[Trp(1-Me)]QDWGEHRC[Sar]E-NH2; disulfide 6-16)	< 100	20.1	− (denotes lack of solubility at the given condition, as UV absorbance at 340 nm exceeds 0.1 AU and/or it is visibly turbid or contains particles.)	− (denotes lack of solubility at the given condition, as UV absorbance at 340 nm exceeds 0.1 AU and/or it is visibly turbid or contains particles.)	+ (denotes solubility at the given condition, as determined by UV absorbance being less than 0.1 AU at 340 nm and the sample being clear when manually inspected.)	+ (denotes solubility at the given condition, as determined by UV absorbance being less than 0.1 AU at 340 nm and the sample being clear when manually inspected.)	+ (denotes solubility at the given condition, as determined by UV absorbance being less than 0.1 AU at 340 nm and the sample being clear when manually inspected.)
CC[C@H](C)[C@@H]1NC(=O)[C@@H](NC(=O)[C@H](Cc2ccccc2)NC(=O)[C@H](CCC(=O)O)NC(=O)[C@H](CO)NC(C)=O)CSSC[C@@H](C(=O)N(C)CC(=O)N[C@@H](CCC(=O)O)C(=O)NCC(=O)N[C@@H](CCC(=O)O)C(=O)N[C@@H](CO)C(=O)N[C@@H](CCC(=O)O)C(=O)N[C@@H](CO)C(=O)N[C@@H](CCCCNC(=O)CC[C@H](NC(=O)CCCCCCCCCCCCCCCCC(=O)O)C(=O)O)C(N)=O)NC(=O)[C@H](CCCNC(=N)N)NC(=O)[C@H](Cc2c[nH]cn2)NC(=O)[C@H](CCC(=O)O)NC(=O)CNC(=O)[C@H](Cc2c[nH]c3ccccc23)NC(=O)[C@H](CC(=O)O)NC(=O)[C@H](CCC(N)=O)NC(=O)[C@H](Cc2cn(C)c3ccccc23)NC1=O [Compound 141] (Ac-SEFCI[Trp(1-Me)]QDWGEHRC[Sar]EGESESK([γGlu-C18 diacid])-NH2; disulfide 4-14)	< 100	145	–	–	–	–	–
